Assay results: ChEMBL document CHEMBL3588744, “Structure-Based Optimization of Naphthyridones into Potent ATAD2 Bromodomain Inhibitors” (J Med Chem, 2015)
Values after ≈ are worked out from the molar mass of the structure shown.

Assays:
[1] = molecular target: Bromodomain adjacent to zinc finger domain protein 2A (Homo sapiens, UniProt Q9UIF9); assay: Binding affinity to BAZ2A in human HUT78 cells incubated for 45 mins by mass spectrometry based bromosphere chemoproteomic assay; assay type: cell-based
Bromodomain adjacent to zinc finger domain protein 2A, sequence (Q9UIF9 whole entry, the tested form may be a part): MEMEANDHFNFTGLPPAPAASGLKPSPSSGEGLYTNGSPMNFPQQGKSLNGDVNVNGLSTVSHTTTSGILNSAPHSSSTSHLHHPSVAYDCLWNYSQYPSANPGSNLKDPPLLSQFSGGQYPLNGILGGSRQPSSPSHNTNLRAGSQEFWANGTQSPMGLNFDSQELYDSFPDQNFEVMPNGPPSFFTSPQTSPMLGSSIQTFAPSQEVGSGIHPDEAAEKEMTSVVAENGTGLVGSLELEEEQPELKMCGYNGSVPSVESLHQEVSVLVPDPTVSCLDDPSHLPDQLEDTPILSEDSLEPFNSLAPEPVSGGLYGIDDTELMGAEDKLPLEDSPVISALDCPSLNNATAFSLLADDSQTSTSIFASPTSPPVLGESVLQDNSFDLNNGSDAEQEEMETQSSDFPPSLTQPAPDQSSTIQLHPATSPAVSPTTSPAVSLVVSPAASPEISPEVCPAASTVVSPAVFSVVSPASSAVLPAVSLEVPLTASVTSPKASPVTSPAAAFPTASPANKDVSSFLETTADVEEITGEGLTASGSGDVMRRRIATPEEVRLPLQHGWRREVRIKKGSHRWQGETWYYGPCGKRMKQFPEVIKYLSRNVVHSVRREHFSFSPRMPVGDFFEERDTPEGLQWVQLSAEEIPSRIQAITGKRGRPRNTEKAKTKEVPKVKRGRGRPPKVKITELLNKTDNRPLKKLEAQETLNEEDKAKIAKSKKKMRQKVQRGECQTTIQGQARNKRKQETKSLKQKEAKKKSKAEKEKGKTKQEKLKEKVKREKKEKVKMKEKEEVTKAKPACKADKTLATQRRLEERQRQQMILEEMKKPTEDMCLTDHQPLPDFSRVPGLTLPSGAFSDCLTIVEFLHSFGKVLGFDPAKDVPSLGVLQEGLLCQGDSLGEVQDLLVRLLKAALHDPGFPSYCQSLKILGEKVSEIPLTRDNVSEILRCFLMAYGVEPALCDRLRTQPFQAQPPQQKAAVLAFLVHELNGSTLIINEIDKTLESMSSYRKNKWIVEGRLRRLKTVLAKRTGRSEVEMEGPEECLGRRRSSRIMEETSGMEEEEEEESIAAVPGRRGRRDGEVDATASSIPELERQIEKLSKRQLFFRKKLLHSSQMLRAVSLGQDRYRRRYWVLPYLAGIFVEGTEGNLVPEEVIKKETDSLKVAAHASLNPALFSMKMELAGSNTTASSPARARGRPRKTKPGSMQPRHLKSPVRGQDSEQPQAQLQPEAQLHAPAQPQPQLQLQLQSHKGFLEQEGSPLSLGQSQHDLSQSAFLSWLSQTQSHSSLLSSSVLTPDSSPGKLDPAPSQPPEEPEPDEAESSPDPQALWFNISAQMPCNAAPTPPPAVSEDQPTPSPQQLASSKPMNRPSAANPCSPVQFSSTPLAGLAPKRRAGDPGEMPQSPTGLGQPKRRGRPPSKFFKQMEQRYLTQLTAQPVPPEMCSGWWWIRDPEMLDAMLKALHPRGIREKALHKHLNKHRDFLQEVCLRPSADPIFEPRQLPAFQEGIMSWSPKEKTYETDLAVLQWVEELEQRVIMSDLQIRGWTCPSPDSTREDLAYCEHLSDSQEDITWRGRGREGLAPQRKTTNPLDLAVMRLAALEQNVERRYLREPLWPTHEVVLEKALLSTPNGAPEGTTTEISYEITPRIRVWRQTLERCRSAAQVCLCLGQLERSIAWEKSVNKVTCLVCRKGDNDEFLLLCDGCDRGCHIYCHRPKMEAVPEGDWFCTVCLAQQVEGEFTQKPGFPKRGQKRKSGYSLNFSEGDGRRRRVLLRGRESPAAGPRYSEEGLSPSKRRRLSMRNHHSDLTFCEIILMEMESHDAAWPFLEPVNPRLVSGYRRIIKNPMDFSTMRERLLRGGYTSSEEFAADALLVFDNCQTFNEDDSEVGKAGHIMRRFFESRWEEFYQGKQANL

Peregrin = molecular target: T1, Peregrin (Homo sapiens, UniProt P55201); assay: Binding affinity to BRPF1 in human HUT78 cells incubated for 45 mins by mass spectrometry based bromosphere chemoproteomic assay; assay type: cell-based
T1 sequence (P55201 whole entry): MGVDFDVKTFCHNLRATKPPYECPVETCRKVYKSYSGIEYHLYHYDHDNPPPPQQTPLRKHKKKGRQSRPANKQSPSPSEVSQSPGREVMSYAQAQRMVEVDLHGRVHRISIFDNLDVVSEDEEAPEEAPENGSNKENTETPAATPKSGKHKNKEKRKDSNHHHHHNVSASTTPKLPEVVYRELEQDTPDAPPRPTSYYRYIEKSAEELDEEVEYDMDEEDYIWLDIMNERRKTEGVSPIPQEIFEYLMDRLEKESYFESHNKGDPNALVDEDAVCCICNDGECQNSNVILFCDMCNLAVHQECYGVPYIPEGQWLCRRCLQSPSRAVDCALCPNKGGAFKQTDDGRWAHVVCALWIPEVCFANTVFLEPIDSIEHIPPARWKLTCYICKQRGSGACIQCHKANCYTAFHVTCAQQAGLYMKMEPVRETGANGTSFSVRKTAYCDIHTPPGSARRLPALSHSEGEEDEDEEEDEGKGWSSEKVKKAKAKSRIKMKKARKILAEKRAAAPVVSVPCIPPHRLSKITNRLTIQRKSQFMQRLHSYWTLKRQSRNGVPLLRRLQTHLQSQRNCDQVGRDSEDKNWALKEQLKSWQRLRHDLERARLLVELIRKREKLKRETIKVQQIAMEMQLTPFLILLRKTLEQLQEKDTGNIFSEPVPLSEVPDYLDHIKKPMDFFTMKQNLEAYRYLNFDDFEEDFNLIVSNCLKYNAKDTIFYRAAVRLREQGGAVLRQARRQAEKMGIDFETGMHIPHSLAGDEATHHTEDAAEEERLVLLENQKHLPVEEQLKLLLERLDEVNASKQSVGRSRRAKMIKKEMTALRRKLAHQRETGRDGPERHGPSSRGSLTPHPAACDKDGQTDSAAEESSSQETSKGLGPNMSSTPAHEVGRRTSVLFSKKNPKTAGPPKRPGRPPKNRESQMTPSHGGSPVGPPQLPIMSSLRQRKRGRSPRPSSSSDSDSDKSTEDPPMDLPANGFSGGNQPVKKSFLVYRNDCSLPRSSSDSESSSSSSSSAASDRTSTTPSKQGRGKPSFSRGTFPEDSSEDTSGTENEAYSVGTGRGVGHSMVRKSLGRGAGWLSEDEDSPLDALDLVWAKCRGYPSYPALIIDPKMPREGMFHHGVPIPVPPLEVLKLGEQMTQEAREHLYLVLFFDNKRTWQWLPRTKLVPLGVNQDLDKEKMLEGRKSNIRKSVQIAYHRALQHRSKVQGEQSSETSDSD

[2] = molecular target: Histone acetyltransferase KAT2A (Homo sapiens, UniProt Q92830); assay: Binding affinity to KAT2A in human HUT78 cells incubated for 45 mins by mass spectrometry based bromosphere chemoproteomic assay; assay type: cell-based
Histone acetyltransferase KAT2A, sequence (Q92830 whole entry): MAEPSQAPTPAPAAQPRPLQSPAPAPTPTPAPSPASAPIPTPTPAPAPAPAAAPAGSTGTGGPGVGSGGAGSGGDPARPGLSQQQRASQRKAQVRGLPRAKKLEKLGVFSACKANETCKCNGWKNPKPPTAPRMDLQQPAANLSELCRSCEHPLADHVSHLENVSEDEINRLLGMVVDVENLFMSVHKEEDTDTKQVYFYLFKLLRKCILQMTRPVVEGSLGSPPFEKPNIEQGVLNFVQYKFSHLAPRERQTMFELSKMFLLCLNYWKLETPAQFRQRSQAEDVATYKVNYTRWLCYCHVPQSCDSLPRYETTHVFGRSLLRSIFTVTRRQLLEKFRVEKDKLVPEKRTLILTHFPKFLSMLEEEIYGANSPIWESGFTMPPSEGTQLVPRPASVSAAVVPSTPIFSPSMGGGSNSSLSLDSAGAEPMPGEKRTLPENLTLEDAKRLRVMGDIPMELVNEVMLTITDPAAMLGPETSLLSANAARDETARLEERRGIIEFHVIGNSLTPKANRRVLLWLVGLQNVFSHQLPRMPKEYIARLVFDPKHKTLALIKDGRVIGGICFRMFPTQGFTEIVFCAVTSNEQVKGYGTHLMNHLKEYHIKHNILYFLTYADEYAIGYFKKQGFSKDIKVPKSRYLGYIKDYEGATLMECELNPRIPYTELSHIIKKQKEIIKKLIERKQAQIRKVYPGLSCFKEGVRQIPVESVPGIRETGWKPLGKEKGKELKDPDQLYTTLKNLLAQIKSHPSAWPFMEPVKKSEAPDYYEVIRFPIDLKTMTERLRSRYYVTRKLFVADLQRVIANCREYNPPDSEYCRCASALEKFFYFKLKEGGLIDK

[3] = molecular target: Bromodomain-containing protein 2 (Homo sapiens, UniProt P25440); assay: Binding affinity to BRD2 in human HUT78 cells incubated for 45 mins by mass spectrometry based bromosphere chemoproteomic assay; assay type: cell-based
[4] = molecular target: T2, Bromodomain-containing protein 9 (Homo sapiens, UniProt Q9H8M2); assay: Binding affinity to BRD9 in human HUT78 cells incubated for 45 mins by mass spectrometry based bromosphere chemoproteomic assay; assay type: cell-based
T2 sequence (Q9H8M2 whole entry): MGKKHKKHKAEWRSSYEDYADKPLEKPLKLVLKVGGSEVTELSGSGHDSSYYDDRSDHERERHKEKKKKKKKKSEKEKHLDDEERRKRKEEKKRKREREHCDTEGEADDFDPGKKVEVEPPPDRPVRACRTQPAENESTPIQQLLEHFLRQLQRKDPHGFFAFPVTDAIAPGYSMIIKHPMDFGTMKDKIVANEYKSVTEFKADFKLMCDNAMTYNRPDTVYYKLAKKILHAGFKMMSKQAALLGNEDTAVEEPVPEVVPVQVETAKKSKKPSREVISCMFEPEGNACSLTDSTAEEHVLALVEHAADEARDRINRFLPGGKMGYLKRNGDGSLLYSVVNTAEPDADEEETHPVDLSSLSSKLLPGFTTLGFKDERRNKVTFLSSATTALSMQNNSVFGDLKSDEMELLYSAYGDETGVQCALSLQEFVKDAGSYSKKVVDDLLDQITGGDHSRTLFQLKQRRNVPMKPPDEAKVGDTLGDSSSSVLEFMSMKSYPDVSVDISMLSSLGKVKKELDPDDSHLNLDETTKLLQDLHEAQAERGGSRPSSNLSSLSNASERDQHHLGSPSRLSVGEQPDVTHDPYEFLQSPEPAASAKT

[5] = molecular target: Transcription initiation factor TFIID subunit 1 (Homo sapiens, UniProt P21675); assay: Binding affinity to TAF1 in human HUT78 cells incubated for 45 mins by mass spectrometry based bromosphere chemoproteomic assay; assay type: cell-based
[6] = molecular target: Nucleosome-remodeling factor subunit BPTF (Homo sapiens, UniProt Q12830); assay: Binding affinity to BPTF in human HUT78 cells incubated for 45 mins by mass spectrometry based bromosphere chemoproteomic assay; assay type: cell-based
Protein polybromo-1 = Protein polybromo-1 (Homo sapiens, UniProt Q86U86); assay: Binding affinity to PBRM1 in human HUT78 cells incubated for 45 mins by mass spectrometry based bromosphere chemoproteomic assay; assay type: cell-based
Protein polybromo-1, sequence (Q86U86 whole entry): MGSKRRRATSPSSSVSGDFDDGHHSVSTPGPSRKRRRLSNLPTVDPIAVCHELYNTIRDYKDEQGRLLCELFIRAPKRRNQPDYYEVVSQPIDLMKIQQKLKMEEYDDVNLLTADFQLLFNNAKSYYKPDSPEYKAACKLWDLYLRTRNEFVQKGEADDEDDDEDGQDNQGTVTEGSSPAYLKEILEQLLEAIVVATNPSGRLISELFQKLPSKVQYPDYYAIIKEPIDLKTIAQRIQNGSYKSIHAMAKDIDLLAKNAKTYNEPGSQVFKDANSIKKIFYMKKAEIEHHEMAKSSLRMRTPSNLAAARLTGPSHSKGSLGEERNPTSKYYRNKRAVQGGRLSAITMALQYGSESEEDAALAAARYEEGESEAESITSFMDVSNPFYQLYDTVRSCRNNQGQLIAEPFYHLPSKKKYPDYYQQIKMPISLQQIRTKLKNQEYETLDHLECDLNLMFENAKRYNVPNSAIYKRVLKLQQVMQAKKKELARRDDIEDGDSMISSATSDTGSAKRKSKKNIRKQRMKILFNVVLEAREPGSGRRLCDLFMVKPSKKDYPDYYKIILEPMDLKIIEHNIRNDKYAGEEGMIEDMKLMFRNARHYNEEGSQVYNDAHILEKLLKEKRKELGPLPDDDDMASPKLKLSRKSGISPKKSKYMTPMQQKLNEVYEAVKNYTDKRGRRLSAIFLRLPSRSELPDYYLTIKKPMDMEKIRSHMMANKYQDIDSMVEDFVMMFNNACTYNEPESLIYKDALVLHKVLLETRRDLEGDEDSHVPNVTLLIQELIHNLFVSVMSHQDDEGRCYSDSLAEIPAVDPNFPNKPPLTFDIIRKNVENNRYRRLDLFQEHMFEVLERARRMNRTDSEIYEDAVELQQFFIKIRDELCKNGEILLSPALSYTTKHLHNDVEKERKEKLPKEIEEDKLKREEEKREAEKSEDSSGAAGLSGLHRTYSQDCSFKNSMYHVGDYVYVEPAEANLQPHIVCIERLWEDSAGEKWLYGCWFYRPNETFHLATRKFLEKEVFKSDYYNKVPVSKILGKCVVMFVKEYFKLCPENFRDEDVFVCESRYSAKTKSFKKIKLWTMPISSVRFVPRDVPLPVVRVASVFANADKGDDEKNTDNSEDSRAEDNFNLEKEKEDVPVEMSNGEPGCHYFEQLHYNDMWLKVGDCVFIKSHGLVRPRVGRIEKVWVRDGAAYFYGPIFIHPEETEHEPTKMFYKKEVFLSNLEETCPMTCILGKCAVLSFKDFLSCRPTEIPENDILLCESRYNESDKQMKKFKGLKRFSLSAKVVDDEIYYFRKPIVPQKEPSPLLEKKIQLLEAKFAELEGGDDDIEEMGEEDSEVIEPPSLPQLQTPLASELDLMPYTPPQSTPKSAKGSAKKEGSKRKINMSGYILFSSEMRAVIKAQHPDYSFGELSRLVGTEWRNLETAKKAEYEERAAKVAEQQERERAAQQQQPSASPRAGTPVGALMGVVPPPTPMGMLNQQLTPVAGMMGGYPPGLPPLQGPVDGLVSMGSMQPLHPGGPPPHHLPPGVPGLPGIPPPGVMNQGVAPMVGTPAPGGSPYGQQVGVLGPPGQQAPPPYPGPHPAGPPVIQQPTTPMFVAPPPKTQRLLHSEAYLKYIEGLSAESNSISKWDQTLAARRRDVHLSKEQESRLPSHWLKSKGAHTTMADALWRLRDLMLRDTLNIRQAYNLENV

[7] = molecular target: T3, Bromodomain testis-specific protein (Homo sapiens, UniProt Q58F21); assay: Binding affinity to BRDT in human HUT78 cells incubated for 45 mins by mass spectrometry based bromosphere chemoproteomic assay; assay type: cell-based
[8] = molecular target: Bromodomain-containing protein 7 (Homo sapiens, UniProt Q9NPI1); assay: Binding affinity to BRD7 in human HUT78 cells incubated for 45 mins by mass spectrometry based bromosphere chemoproteomic assay; assay type: cell-based
[9] = molecular target: T4, Bromodomain-containing protein 3 (Homo sapiens, UniProt Q15059); assay: Binding affinity to BRD3 in human HUT78 cells incubated for 45 mins by mass spectrometry based bromosphere chemoproteomic assay; assay type: cell-based
T4 sequence (Q15059 whole entry): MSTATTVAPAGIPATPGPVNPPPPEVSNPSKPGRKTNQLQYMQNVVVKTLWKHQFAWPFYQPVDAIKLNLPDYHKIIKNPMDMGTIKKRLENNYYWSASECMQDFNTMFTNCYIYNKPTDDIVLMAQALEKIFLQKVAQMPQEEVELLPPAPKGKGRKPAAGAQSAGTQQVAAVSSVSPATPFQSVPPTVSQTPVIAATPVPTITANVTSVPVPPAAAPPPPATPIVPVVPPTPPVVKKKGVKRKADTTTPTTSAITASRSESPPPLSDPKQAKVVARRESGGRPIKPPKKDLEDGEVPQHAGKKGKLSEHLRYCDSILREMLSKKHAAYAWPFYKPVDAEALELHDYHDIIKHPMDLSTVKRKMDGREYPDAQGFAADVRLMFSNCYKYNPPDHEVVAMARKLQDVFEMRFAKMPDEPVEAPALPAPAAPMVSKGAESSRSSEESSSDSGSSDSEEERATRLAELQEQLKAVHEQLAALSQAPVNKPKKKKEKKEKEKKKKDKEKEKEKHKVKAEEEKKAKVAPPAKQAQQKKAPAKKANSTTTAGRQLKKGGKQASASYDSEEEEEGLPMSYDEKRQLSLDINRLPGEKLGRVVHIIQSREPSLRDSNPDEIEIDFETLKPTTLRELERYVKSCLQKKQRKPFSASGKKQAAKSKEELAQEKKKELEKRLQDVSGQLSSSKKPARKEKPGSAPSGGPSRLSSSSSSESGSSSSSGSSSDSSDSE

[10] = molecular target: Histone acetyltransferase KAT2B (Homo sapiens, UniProt Q92831); assay: Binding affinity to KAT2B in human HUT78 cells incubated for 45 mins by mass spectrometry based bromosphere chemoproteomic assay; assay type: cell-based
[11] = molecular target: Tyrosine-protein kinase BAZ1B (Homo sapiens, UniProt Q9UIG0); assay: Binding affinity to BAZ1B in human HUT78 cells incubated for 45 mins by mass spectrometry based bromosphere chemoproteomic assay; assay type: cell-based
[12] = molecular target: Bromodomain-containing protein 4 (Homo sapiens, UniProt O60885, Y390A)
[13] = molecular target: T4, Bromodomain-containing protein 3; assay: Binding affinity to BRD3 containing BD1 bromodomains (unknown origin) by TR-FRET assay
[14] = Permeability across phosphatidyl choline membrane at pH 7.4 after 3 hrs by HPLC with UV detection method; assay type: ADME; details: not told, read-out: permeability
[15] = molecular target: T4, Bromodomain-containing protein 3; assay: Binding affinity to BRD3 containing BD2 bromodomains (unknown origin) by TR-FRET assay
[16] = molecular target: T5, Bromodomain-containing protein 4 (Homo sapiens, UniProt O60885); assay: Binding affinity to BRD4 containing BD2 bromodomains (unknown origin) by TR-FRET assay
physchem = details: phosphate buffered saline, pH 7.4, solubility
Description: Solubility of the compound in phosphate buffered saline at pH 7.4 after 1 hr by CLND method

[17] = Distribution coefficient, log D of the compound at pH 7.4 by chromatographic method; assay type: physicochemical; details: octanol/water
[18] = molecular target: T5, Bromodomain-containing protein 4; assay: Binding affinity to BRD4 containing BD1 bromodomains (unknown origin) by TR-FRET assay
[19] = molecular target: T3, Bromodomain testis-specific protein; assay: Binding affinity to BRDt containing BD2 bromodomains (unknown origin) by TR-FRET assay

Row | Structure (SMILES) | Kd [1] | Kd (Peregrin) | Kd [2] | Kd [3] | Kd [4] | Kd [5] | Kd [6] | Kd (Protein polybromo-1) | Kd [9] | Papp at 3 h [14] | solubility kinetic at 1 h (physchem) | chromatographic logD [17] | also measured
1 | Cc1cncc(-c2ccc(N[C@@H]3CCNC[C@H]3OCC3CCS(=O)(=O)CC3)c3[nH]c(=O)c(C)cc23)c1 | 3.98 µM | 25.1 µM | > 100 µM | 631 nM | 1.26 µM | 1.58 µM | > 100 µM | 2510 nM | 1000 nM | – | – | – | Kd [7]: 2000 nM; Kd [8]: 3.16 µM; Kd [10]: > 100 µM; Kd [11]: > 100 µM
2 | Cc1cncc(-c2cnc(N[C@@H]3CCNC[C@H]3OCC3CCS(=O)(=O)CC3)c3[nH]c(=O)c(C)cc23)c1 | – | – | – | – | – | – | – | – | – | < 0.3 ×10⁻⁶ cm/s | 179 µM (≈ 91.6 µg/mL) | 1.6 | IC50 [12]: 15.8 µM; IC50 [13]: > 50.1 µM; IC50 [15]: > 50.1 µM; IC50 [16]: 5.01 µM; IC50 [18]: 15.8 µM; IC50 [19]: > 50.1 µM
3 | Cc1cncc(-c2cnc(N[C@@H]3CCNC[C@H]3OCC3CCCCC3)c3[nH]c(=O)c(C)cc23)c1 | > 100 µM | > 100 µM | > 100 µM | 3160 nM | 15.8 µM | 31.6 µM | > 100 µM | > 100000 nM | 2000 nM | 13.8 ×10⁻⁶ cm/s | 170 µM (≈ 78.5 µg/mL) | 4 | –
